Laboratory results taken from patent publication US20240285508A1, “METHOD AND COMPOSITION FOR IMPROVING THE APPEARANCE OF SKIN” (The Procter & Gamble Company, priority 2023, published 2024).
“And” between values parts separate entries of the source, which are not always exact repeats. Identical values can stand only once.

Experiments:
gelatin [1] = assay: Advanced Glycation End Product Assay (AGE Assay), fluorescence intensity (FLR, glycation) readout; type: biochemical; conditions: 24 hours
Experimental: (§1) The AGE Assay provides an in vitro method of determining how a test agent impacts glycation. In particular, a material of interest can be applied to gelatin, which acts as a surrogate for collagen (i.e., a heterogeneous mixture of high-average-molecular-mass, water-soluble proteins present in collagen), at neutral pH range. A glycating reagent is added to the gelatin matrix to initialize glycation reaction. The resulting AGEs detected by a spectrophotometer. When testing a material of interest, such as lactobionic acid and/or white water lily extract is added to the gelatin sample, it reacts with the proteins in the gelatin, much in the same way as it would with collagen. Glycation reaction will be initiated when glycating reagent is added into this material and gelatin matrix and will produce AGEs. A positive (pos) glycation control group is set up the same way as testing material groups to contain gelatin and glycating reagent but less any treatment material. The positive control group depicts how much glycation and yellowness can be formed without perturbation by any treatment material. The spectrophotometer detects the fluorescence intensity (“FLR”) or yellowness (b*) associated with the resulting AGEs, which can then be correlated to the amount of glycation that occurs in skin. Lower b* and FLR values correspond to less AGEs, and thus less glycation.
(§2) Three replicates of each test samples are prepared in a 96-well plate (e.g., a FALCON brand 96-well tissue culture plate or equivalent) at equal and defined volume. The plate(s) containing the test samples are placed in a standard cell culture incubator (e.g., THERMO SCIENTIFIC FORMA brand incubator available from Fisher Scientific, Waltham, MA or equivalent) and incubated for the duration of the test at 37° C. with 5% CO2 and 95% relative humidity. Fluorescence intensity (FLR) and yellowness are measured at the start of test (time=0) and monitored for 24 hours. To measure FLR or b*, the plate(s) containing the test samples are removed from the incubator and placed in a SPECTRAMAX Plus brand spectrophotometer (available from Molecular Devices, Sunnyvale, California) or equivalent. To detect fluorescence intensity (“FLR”), the spectrophotometer is set at 400/465 nm (ex/em). To detect yellowness (b*), the spectrophotometer is set to collect absorbance spectrum from 350 nm to 750 nm in 10 nm increments. The absorbance spectra from the yellowness measurement are then converted to L*a*b* values by a computer using suitable conversion software.
(§3) The change in fluorescence intensity (“ΔFLR”) is determined by comparing the FLR of a well at a sampling time point to the initial FLR at time=0. The change in yellowness (“Δb*”) at a particular time point is determined by comparing the initial b* value at time=0 to the b* value at the time point of interest. To determine the relative amount of glycation or yellowness formed due to a treatment effect compared to the positive glycation control group, which doesn't contain any active treatment, the ΔFLR and Δb* values from a treatment group is normalized against the corresponding values from the positive glycation control group (pos glycation) according to the following equation: […]
(§4) The test samples were prepared in triplicate for each testing group on a 96-well plate with 250 μl volume per well. Each well contains 2.25 mg gelatin (available from Sigma® as Catalog #G1393), the testing material(s) diluted to desired concentration, 40 mM DL-Glyceraldehyde (available from Sigma®, Catalog #G5001-5G), and a sufficient quantity of Dulbecco's phosphate buffered saline (“DPBS”) (available from Gibco's, Catalog #14190-144). The vehicle control contained 2.25 mg gelatin and a sufficient quantity of DPBS. The positive glycation control contained 2.25 mg gelatin, 40 mM DL-glyceraldehyde and DPBS.
(§5) The average glycation, ΔFLR, and yellowness, Δb*, were determined for each sample according to the AGE Assay described herein. The duration of the test was 24 hours. […]

gelatin [2] = assay: Advanced Glycation End Product Assay (AGE Assay), yellowness (b*) readout; type: biochemical; conditions: 24 hours; for % Δb* (yellowness) from a treatment vs positive glycation control / Convert to % Δb* inhibition (100%-% Δb*) / Convert to % Δb* inhibition (100-% Δb*): samples 1-3
Experimental: as §1, §2, §3, §4, §5

[3] = 0.101% lactobionic acid, Table 4, samples 1-3
[4] = 0.2% lactobionic acid, Table 2, samples 1-3
[5] = 0.101% lactobionic acid, Table 3

## O=C(O)[C@H](O)[C@@H](O)[C@H](O[C@@H]1O[C@H](CO)[C@H](O)[C@H](O)[C@H]1O)[C@H](O)CO [LBA, lactobionic acid]
Gelatin [1]; 0.1% LBA, Table 2
  Mean % ΔFLR inhibition for each group: 24%
Gelatin [1]; 0.1% LBA, Table 2, samples 1-3
  % ΔFLR (glycation) normalized vs positive glycation control: 77% and 75%
  Convert to % ΔFLR inhibition (100-% ΔFLR): 23% and 25%
Gelatin [1]; 0.1% LBA, Table 6
  Mean % ΔFLR inhibition for each group: 30%
Gelatin [1]; 0.1% LBA, Table 6, samples 1-3
  % ΔFLR (glycation) normalized vs positive glycation ctrl: 69% and 71% and 70%
  Convert to % ΔFLR inhibition (100-% ΔFLR): 31% and 29% and 30%
Gelatin [1]; 0.101% lactobionic acid, Table 4
  Mean % ΔFLR inhibition for each group: 27%
Gelatin [1]; [3]
  % ΔFLR (glycation) normalized vs positive glycation control: 73% and 74%
  Convert to % ΔFLR inhibition (100-% ΔFLR): 27% and 26%
Gelatin [1]; 0.2% lactobionic acid, Table 2
  Mean % ΔFLR inhibition for each group: 44%
Gelatin [1]; [4]
  % ΔFLR (glycation) normalized vs positive glycation control: 55% and 56%
  Convert to % ΔFLR inhibition (100-% ΔFLR): 45% and 44%
Gelatin [2]; 0.1% LBA, Table 1
  Mean % Δb* inhibition for each group: 27%
  % Δb* (yellowness) from a treatment vs positive glycation control: 73%
  Convert to % Δb* inhibition (100%-% Δb*): 27%
Gelatin [2]; 0.1% LBA, Table 5
  Mean % Δb* inhibition for each group: 32%
  % Δb* (yellowness) from a treatment vs positive glycation control: 68% and 69% and 67%
  Convert to % Δb* inhibition (100-% Δb*): 32% and 31% and 33%
Gelatin [2]; [5]
  Mean % Δb* inhibition for each group: 32%
  % Δb* (yellowness) from a treatment vs positive glycation control: 68%
  Convert to % Δb* inhibition (100-% Δb*): 32%
Gelatin [2]; 0.2% lactobionic acid, Table 1
  Mean % Δb* inhibition for each group: 49%
  % Δb* (yellowness) from a treatment vs positive glycation control: 50% and 53% and 51%
  Convert to % Δb* inhibition (100%-% Δb*): 50% and 47% and 49%
